Measured values reported in US10757937B2, “Sulfonamides that activate ABA receptors” (The Regents of the University of California, priority 2014, dated 2020).
pIC50: −log10 of the molar value.

Legend:
Experiment in all cases: receptor-mediated PP2C (HAB1) inhibition in vitro assay
Type in all cases: biochemical
PYL2 = molecular target: T1, PYL2 (Arabidopsis thaliana, UniProt O80992); details: for pIC50: Table VII, read-out: PP2C Dose Curves PYL2 (IC50)
T1 construct: 6X-His; made in house; host or cells: E. coli BL21[DE3]pLysS
T1 sequence (O80992 1-190): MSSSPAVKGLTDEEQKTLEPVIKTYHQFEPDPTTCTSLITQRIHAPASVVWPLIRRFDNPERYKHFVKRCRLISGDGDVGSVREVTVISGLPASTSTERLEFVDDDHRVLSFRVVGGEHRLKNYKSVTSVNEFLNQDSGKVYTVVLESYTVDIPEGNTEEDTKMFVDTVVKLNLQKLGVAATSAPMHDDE
T1 sequence (Q9CAJ0 23-511 partner): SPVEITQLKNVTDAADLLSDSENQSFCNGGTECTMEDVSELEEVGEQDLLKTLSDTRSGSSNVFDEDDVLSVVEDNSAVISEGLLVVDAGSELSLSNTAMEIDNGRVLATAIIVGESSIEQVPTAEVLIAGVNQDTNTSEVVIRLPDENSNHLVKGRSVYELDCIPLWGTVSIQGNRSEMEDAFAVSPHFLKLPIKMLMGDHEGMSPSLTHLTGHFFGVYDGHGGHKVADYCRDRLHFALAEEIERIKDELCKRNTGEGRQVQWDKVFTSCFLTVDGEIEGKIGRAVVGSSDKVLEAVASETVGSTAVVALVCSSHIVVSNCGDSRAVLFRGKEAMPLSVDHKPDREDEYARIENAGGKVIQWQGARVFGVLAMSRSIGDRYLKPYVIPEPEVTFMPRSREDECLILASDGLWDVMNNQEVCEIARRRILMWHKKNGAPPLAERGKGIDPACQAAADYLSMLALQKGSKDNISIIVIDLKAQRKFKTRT
Summary of the method: (§1)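 Fluorogenic readout: 4-methylumbelliferyl-phosphate hydrolysis by 50 nM GST-HAB1 plus 2:1 His-receptor; Tris-OAc pH 7.9, NaCl, 1 mM MnCl2, β-ME. Compounds at 25 μM or 50 uM single dose; IC50 from dose curves for selected compounds.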

PYL3 = molecular target: T2, PYL3 (Arabidopsis thaliana, UniProt Q9SSM7); details: for pIC50: Table VII, read-out: PP2C Dose Curves PYL3 (IC50)
T2 construct: 6X-His; made in house; host or cells: E. coli BL21[DE3]pLysS
T2 sequence (Q9SSM7 1-209): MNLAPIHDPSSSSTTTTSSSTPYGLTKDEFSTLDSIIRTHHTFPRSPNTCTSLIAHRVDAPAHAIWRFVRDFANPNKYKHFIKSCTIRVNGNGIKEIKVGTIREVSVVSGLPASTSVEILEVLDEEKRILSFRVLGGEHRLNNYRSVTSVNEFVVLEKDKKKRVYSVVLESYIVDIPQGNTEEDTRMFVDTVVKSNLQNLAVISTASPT
T2 sequence (Q9CAJ0 23-511 partner): T1 sequence (Q9CAJ0 23-511 partner)
Summary of the method: as §1

PYL4 = molecular target: T3, PYL4 (Arabidopsis thaliana, UniProt O80920); details: for remaining activity at 25 µM: compound at 25 μM, control without agonist = 100%; for pIC50: Table VII, read-out: PP2C Dose Curves PYL4 (IC50)
T3 construct: 6X-His; made in house; host or cells: E. coli BL21[DE3]pLysS
T3 sequence (O80920 1-207): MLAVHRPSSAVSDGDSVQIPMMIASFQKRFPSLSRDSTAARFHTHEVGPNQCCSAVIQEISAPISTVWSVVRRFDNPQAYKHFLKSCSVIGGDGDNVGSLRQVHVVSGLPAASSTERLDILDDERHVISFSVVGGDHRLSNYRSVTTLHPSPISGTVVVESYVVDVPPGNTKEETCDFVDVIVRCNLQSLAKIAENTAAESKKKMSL
T3 sequence (Q9CAJ0 23-511 partner): T1 sequence (Q9CAJ0 23-511 partner)
Summary of the method: (§2)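 Compounds, tested at 25 μM or 50 uM with ABA at 10 uM, were incubated with recombinant receptor and 50 nM GST-HAB1 (2:1 ratio) in MnCl2-containing Tris-OAc buffer, pH 7.9. Phosphatase activity was followed by 4-methylumbelliferyl-phosphate fluorescence.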

PYL5 = molecular target: T4, PYL5 (Arabidopsis thaliana, UniProt Q9FLB1); details: for pIC50: Table VII, read-out: PP2C Dose Curves PYL5 (IC50); for remaining activity at 25 µM: compound at 25 μM, control without agonist = 100%; for PYL5 agonist potency and selectivity: compounds with cyclopropyl rings at alpha carbon
T4 construct: 6X-His; made in house; host or cells: E. coli BL21[DE3]pLysS
T4 sequence (Q9FLB1 1-203): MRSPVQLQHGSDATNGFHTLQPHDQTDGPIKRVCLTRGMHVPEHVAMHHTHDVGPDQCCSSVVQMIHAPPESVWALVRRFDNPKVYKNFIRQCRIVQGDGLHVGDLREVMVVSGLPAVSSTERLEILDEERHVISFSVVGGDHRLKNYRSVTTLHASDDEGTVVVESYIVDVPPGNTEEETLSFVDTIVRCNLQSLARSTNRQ
T4 sequence (Q9CAJ0 23-511 partner): T1 sequence (Q9CAJ0 23-511 partner)
Summary of the method: as §2

PYL8 = molecular target: T5, PYL8 (Arabidopsis thaliana, UniProt Q9FGM1); details: for pIC50: Table VII, read-out: PP2C Dose Curves PYL8 (IC50); for remaining activity at 25 µM: compound at 25 μM, control without agonist = 100%
T5 construct: 6X-His; made in house; host or cells: E. coli BL21[DE3]pLysS
T5 sequence (Q9FGM1 1-188): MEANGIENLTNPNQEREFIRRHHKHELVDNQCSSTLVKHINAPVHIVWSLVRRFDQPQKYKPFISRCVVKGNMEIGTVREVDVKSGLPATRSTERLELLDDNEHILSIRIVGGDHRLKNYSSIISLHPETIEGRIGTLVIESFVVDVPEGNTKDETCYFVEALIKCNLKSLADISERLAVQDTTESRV
T5 sequence (Q9CAJ0 23-511 partner): T1 sequence (Q9CAJ0 23-511 partner)
Summary of the method: as §1

PYL9 = molecular target: T6, PYL9 (Arabidopsis thaliana, UniProt Q84MC7); details: for pIC50: Table VII, read-out: PP2C Dose Curves PYL9 (IC50); for remaining activity at 25 µM: compound at 25 μM, control without agonist = 100%; for PYL9 agonist potency and selectivity: five- and six-membered rings at alpha carbon
T6 construct: 6X-His; made in house; host or cells: E. coli BL21[DE3]pLysS
T6 sequence (Q84MC7 1-187): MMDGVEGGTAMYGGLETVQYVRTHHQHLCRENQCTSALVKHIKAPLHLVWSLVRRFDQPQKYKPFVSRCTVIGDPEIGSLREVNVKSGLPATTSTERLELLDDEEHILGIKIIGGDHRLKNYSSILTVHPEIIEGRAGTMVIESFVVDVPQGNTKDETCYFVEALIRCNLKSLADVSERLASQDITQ
T6 sequence (Q9CAJ0 23-511 partner): T1 sequence (Q9CAJ0 23-511 partner)
Summary of the method: as §1

Row | SMILES | PP2C Activity PYL2 (PYL2; ABA (10 μM)) | PP2C Activity PYL3 (PYL3; ABA (10 μM)) | PP2C Activity PYL4 (PYL4; ABA (10 μM)) | PP2C Activity PYL5 (PYL5; ABA (10 μM)) | PP2C Activity PYL8 (PYL8; ABA (10 μM)) | PP2C Activity PYL9 (PYL9; ABA (10 μM)) | remaining activity at 25 µM (PYL4) [%] | pIC50 (PYL5) | remaining activity at 25 µM (PYL5) [%] | pIC50 (PYL8) | remaining activity at 25 µM (PYL8) [%] | pIC50 (PYL9) | remaining activity at 25 µM (PYL9) [%] | pIC50 (PYL2) | pIC50 (PYL3) | pIC50 (PYL4) | PYL9 agonist potency and selectivity (PYL9) | PYL5 agonist potency and selectivity (PYL5)
1 | CC1=CC(=O)CC(C)(C)[C@@]1(O)/C=C/C(C)=C\C(=O)O [ABA, Abscisic acid, reference compound] | 6.1 | 5.4 | 10.2 | 4.9 | 7.0 | 6.3 | – | – | – | – | – | – | – | – | – | – | – | –
2 | CC(C)(C(=O)NS(=O)(=O)Cc1ccc([N+](=O)[O-])cc1)c1ccccc1 [Compound 3] | – | – | – | – | – | – | 90 | 4.53 | 47 | 5.07 | 35 | 5.52 | 18 | – | – | – | – | –
3 | CC(C)(C(=O)NS(=O)(=O)Cc1ccc(C#N)cc1)c1ccc(Cl)cc1 [Compound 6] | – | – | – | – | – | – | 90 | < 4.30 | 21 | 4.58 | 52 | 5.05 | 32 | < 4.30 | – | – | – | –
4 | CC(C)(C(=O)NS(=O)(=O)Cc1ccc(C#N)cc1)c1ccc(Cl)c(Cl)c1 [Compound 7] | – | – | – | – | – | – | 90 | 4.97 | 33 | 4.40 | 54 | 4.73 | 38 | < 4.30 | – | – | – | –
5 | CC(C)(C(=O)NS(=O)(=O)Cc1ccc(C#N)cc1)c1ccc(F)cc1 [Compound 13] | – | – | – | – | – | – | 98 | 4.96 | 37 | 5.35 | 32 | 5.79 | 17 | < 4.30 | – | – | – | –
6 | CC(C)(C(=O)NS(=O)(=O)Cc1ccc(C#N)cc1)c1cccc(C#N)c1 [Compound 18] | – | – | – | – | – | – | 91 | 5.71 | 12 | 4.73 | 52 | 5.08 | 34 | < 4.30 | < 4.30 | < 4.30 | – | –
7 | CCC(CC)(C(=O)NS(=O)(=O)Cc1ccc([N+](=O)[O-])cc1)c1ccccc1 [Compound 19] | – | – | – | – | – | – | 86 | < 4.30 | 85 | 5.02 | 36 | 5.41 | 15 | < 4.30 | < 4.30 | < 4.30 | – | –
8 | CC(C)(C(=O)NS(=O)(=O)Cc1ccc(C#N)cc1)c1ccccc1 [Compound 23] | – | – | – | – | – | – | – | 4.40 | – | 4.31 | – | 5.73 | – | – | – | – | – | –
9 | N#Cc1ccc(CS(=O)(=O)NC(=O)C2(c3ccc(F)cc3)CCCC2)cc1 [Compound 24] | – | – | – | – | – | – | 92 | < 4.30 | 99 | 5.20 | 21 | 6.22 | 10 | – | – | < 4.30 | potent and relatively selective PYL9 agonists | –
10 | N#Cc1ccc(CS(=O)(=O)NC(=O)C2(c3ccccc3F)CCCC2)cc1 [Compound 25] | – | – | – | – | – | – | 94 | – | 102 | 4.90 | 37 | 5.17 | 21 | – | – | – | – | –
11 | N#Cc1ccc(CS(=O)(=O)NC(=O)C2(c3cccc(F)c3)CCCC2)cc1 [Compound 26] | – | – | – | – | – | – | 99 | – | 105 | 4.94 | 33 | 5.15 | 18 | – | – | – | – | –
12 | N#Cc1ccc(CS(=O)(=O)NC(=O)C2(c3ccccc3)CCC2)cc1 [Compound 29] | – | – | – | – | – | – | 96 | < 4.30 | 90 | 5.47 | 28 | 5.90 | 14 | – | – | – | – | –
13 | N#Cc1ccc(CS(=O)(=O)NC(=O)C2(c3ccc(Br)cc3)CC2)cc1 [Compound 30] | – | – | – | – | – | – | 90 | 6.07 | 12 | < 4.30 | 82 | < 4.30 | 69 | < 4.30 | < 4.30 | – | – | potent and relatively selective PYL5 agonists
14 | N#Cc1ccc(CS(=O)(=O)NC(=O)C2(c3ccc(F)cc3)CCC2)cc1 [Compound 32] | – | – | – | – | – | – | 92 | < 4.30 | 74 | 5.49 | 24 | 5.85 | 12 | – | – | – | – | –
15 | N#Cc1ccc(CS(=O)(=O)NC(=O)C2(c3ccc(F)cc3)CC2)cc1 [Compound 35] | – | – | – | – | – | – | 94 | 5.41 | 20 | < 4.30 | 62 | 4.57 | 49 | – | – | – | – | –
16 | COc1ccccc1C1(C(=O)NS(=O)(=O)Cc2ccc(C#N)cc2)CCC1 [Compound 42] | – | – | – | – | – | – | 88 | 4.53 | 45 | 4.28 | 65 | 4.76 | 42 | – | – | – | – | –
17 | Cc1cccc(C2(C(=O)NS(=O)(=O)Cc3ccc(C#N)cc3)CCCC2)c1 [Compound 43] | – | – | – | – | – | – | 95 | – | 95 | 4.64 | 41 | 4.55 | 46 | – | – | – | – | –
18 | Cc1ccccc1C1(C(=O)NS(=O)(=O)Cc2ccc(C#N)cc2)CC1 [Compound 44] | – | – | – | – | – | – | 89 | 5.61 | 18 | 4.31 | 63 | 4.67 | 50 | < 4.30 | – | – | – | potent and relatively selective PYL5 agonists
19 | N#Cc1ccc(CS(=O)(=O)NC(=O)C2(c3ccc(F)cc3)CCCCC2)cc1 [Compound 51] | – | – | – | – | – | – | 93 | < 4.30 | 97 | 5.95 | 16 | 7.40 | 8 | – | – | – | potent and relatively selective PYL9 agonists | –
